Patent US20120295920A1, “5-AMINO-4-HYDROXYPENTOYL AMIDES” (priority 2009, published 2012)
Read-outs that look alike come from different tables or passages of the source.

Tests used:
[1] = test system: HIV-1 Strain C (G048G/V, V082A); assay: microbe, parasite or virus in culture; type: cell-based; conditions: clinical isolate Strain C; read-out: C EC50
Method: (§1) MT4-LTR-EGFP cells were obtained by transfecting MT4 cells with a selectable construct encompassing the sequences coding for the HIV long terminal repeat (LTR) as a promoter for the expression of enhanced green fluorescent protein (EGFP) and subsequent selection of permanently transfected cells.
(§2) The antiviral activity on different HIV-1 strains, was determined in a cell-based virus replication assay. Here MT4-LTR-EGFP cells (150,000 cells/ml) are infected (multiplicity of infection [MOI] of 0.0025) in the presence or absence of different inhibitor concentrations. Two methodologies for read-out were used, either quantification of GFP-fluoresence on day 3 post-infection, or quantification of cell-viability using rezazurin (as described by Fields, R. D., and M. V. Lancaster (1993) Am. Biotechnol. Lab. 11:48-50) on day 4 post infection.
(§3) In the following Table, Strains A, B, and C are clinical isolates that include the following protease inhibitor resistance mutations in the protease domain (background mutations are not mentioned).

[2] = test system: HIV-1 Strain A (M046I, I084V); assay: microbe, parasite or virus in culture; type: cell-based; conditions: clinical isolate Strain A; read-out: A EC50
Method: as §1, §2, §3

[3] = test system: HIV-1 Strain B (M046I, I050V); assay: microbe, parasite or virus in culture; type: cell-based; conditions: clinical isolate Strain B; read-out: B EC50
Method: as §1, §2, §3

HIV-1 wild-type strain = assay: General antiviral assay, cell-based virus replication in MT4-LTR-EGFP cells, wild-type strain; conditions: wild-type strain IIIB, MT4-LTR-EGFP cells
Method: as §1, §2

HIV-1 IIIB = assay: 50% HS-Rezazurin: antiviral assay in the presence of 50% human serum, MT-4 cells, resazurin cell viability; type: cell-based
Method: For the Antiviral assay in the presence of 50% human serum MT-4 cells were infected with HIV-1 IIIB at a MOI of 0.001 to 0.01 CCID50/cell in RPMI1640 medium. Following 1 h of incubation, cells were washed and plated into a 96-well plate containing serial dilutions of compound in the presence of 10% fetal calf serum (FCS), or 50% human serum. After 4 days incubation, the EC50 in the presence of 50% human serum was determined by a cell viability assay using resazurin.
The last column lists the results for the wild-type strain IIB in the presence of 50% human serum MT-4 cells.

mock-infected MT4 cells = assay: General toxicity assay on mock-infected MT4 cells with CMV-EGFP reporter (CC50); type: cell-based
[4] = mock-infected MT4 cells with CMV-EGFP reporter, read-out: TOX-MT4CMV (CC50)
[5] = MT4LTR cells, read-out: TOX-MT4LTR (CC50)

Compound	EC50 [1]	EC50 [2]	EC50 [3]	EC50 (HIV-1 wild-type strain)	EC50 (HIV-1 IIIB)	CC50 (mock-infected MT4 cells; [4])	CC50 (mock-infected MT4 cells; [5])
COC(=O)N[C@H](C(=O)N[C@@H](Cc1ccc(-c2ccc(N(C)C)nc2)cc1)[C@@H](O)C[C@@H](Cc1ccccc1F)C(=O)N[C@H]1[C@H](C)CC[C@H]1O)C(C)(C)C [Compound 87]	5.4 nM	8 nM	1.9 nM	4.7 nM	14.4 nM	> 32000 nM	
COC(=O)N[C@H](C(=O)N[C@@H](Cc1ccc(-c2ccc(N(C)C)nc2)cc1)[C@@H](O)C[C@@H](Cc1ccccc1F)C(=O)N[C@H]1[C@H](C)CCC[C@H]1O)C(C)(C)C [Compound 89]	0.8 nM			1.1 nM	4.9 nM	> 32000 nM	> 32000 nM
COC(=O)N[C@H](C(=O)N[C@@H](Cc1ccc(-c2cnc(N(C)C)nc2)cc1)[C@@H](O)C[C@@H](Cc1ccccc1Cl)C(=O)N[C@H]1c2cc(F)ccc2OC[C@H]1O)C(C)(C)C [Compound 63]	0.6 nM	1.2 nM	0.7 nM	1.5 nM	9.4 nM		> 32000 nM
COC(=O)N[C@H](C(=O)N[C@@H](Cc1ccc(-c2cnc(C)s2)cc1)[C@@H](O)C[C@@H](Cc1ccccc1F)C(=O)N[C@H]1[C@H](C)CC[C@H]1O)C(C)(C)C [Compound 83]	2.7 nM	8.3 nM	2.5 nM	4 nM	14.3 nM	> 32000 nM	
COC(=O)N[C@H](C(=O)N[C@@H](Cc1ccc(-c2ccnc(C(F)(F)F)c2)cc1)[C@@H](O)C[C@@H](Cc1ccccc1F)C(=O)N[C@H]1c2cc(Cl)ccc2OC[C@H]1O)C(C)(C)C [Compound 31]	3.4 nM	5 nM	3.2 nM	7 nM	26.4 nM	> 32000 nM	
COc1ccc(-c2ccc(C[C@H](NC(=O)O[C@H]3CO[C@H]4OCC[C@H]43)[C@@H](O)C[C@@H](Cc3ccccc3F)C(=O)N[C@H]3[C@H](C)CCC[C@H]3O)cc2)cn1 [Compound 82]	0.7 nM	1.1 nM	0.8 nM	1.8 nM	5.1 nM		> 27000 nM
COCCNC(=O)[C@@H](NC(=O)[C@H](Cc1cccc(F)c1)C[C@H](O)[C@H](Cc1ccc(-c2ccc(OC)nc2)cc1)NC(=O)[C@@H](NC(=O)OC)C(C)(C)C)C(C)(C)C [Compound 92]	2.9 nM	4.2 nM	1.8 nM	2.6 nM	8.4 nM	> 32000 nM	> 32000 nM
COC(=O)NC(C(=O)NC(Cc1ccc(-c2csc(N(C)C)n2)cc1)C(O)CC(Cc1ccccc1F)C(=O)NC1c2cc(Cl)ccc2OCC1O)C(C)(C)C (stereo not shown) [Compound 20]	2.7 nM	7.4 nM		3.1 nM	11.2 nM	6000 nM	
COC(=O)N[C@H](C(=O)N[C@@H](Cc1ccc(-c2ccc(OC)nc2)cc1)[C@@H](O)C[C@@H](Cc1ccccc1Cl)C(=O)N[C@H]1[C@H](C)CCC[C@H]1O)C(C)(C)C [Compound 91]	1 nM	2.6 nM	0.7 nM	1.1 nM	3.2 nM	17000 nM	16000 nM
COC(=O)NC(C(=O)NC(Cc1ccc(-c2cnc(N(C)C)cn2)cc1)C(O)CC(Cc1ccccc1F)C(=O)NC1c2cc(Cl)ccc2OCC1O)C(C)(C)C (stereo not shown) [Compound 22]	2.1 nM	3.5 nM	2.6 nM	3.8 nM	26.4 nM	> 32000 nM	
COC(=O)N[C@H](C(=O)N[C@@H](Cc1ccc(-c2ccc(OC)nc2)cc1)[C@@H](O)C[C@@H](Cc1ccccc1Cl)C(=O)N[C@H]1c2ccccc2OC[C@H]1O)C(C)(C)C [Compound 37]	0.8 nM	2.5 nM	0.9 nM	1.7 nM	4.6 nM	> 32000 nM	> 32000 nM
COc1ccc(-c2ccc(C[C@H](NC(=O)O[C@H]3CO[C@H]4OCC[C@H]43)[C@@H](O)C[C@@H](Cc3ccccc3F)C(=O)N[C@H]3c4cc(Cl)cc(F)c4OC[C@H]3O)cc2)cn1 [Compound 81]	1.3 nM	2.8 nM	2.4 nM	4.1 nM	13.4 nM		> 32000 nM
